Molecular target: T1, CatSper channel (CatSper1) (Mus musculus, UniProt A2ARP9+Q80W99+Q8BVN3+Q91ZR5)
T1 construct: native channel in mouse sperm; with CatSper2, CatSper3, CatSper4
Test: whole-sperm patch clamp of native CatSper currents; also SBFI and fura-2 photometry (abstract IC50 […] by optical assay)
Type: cell-based

T1 sequence (Q91ZR5 whole entry): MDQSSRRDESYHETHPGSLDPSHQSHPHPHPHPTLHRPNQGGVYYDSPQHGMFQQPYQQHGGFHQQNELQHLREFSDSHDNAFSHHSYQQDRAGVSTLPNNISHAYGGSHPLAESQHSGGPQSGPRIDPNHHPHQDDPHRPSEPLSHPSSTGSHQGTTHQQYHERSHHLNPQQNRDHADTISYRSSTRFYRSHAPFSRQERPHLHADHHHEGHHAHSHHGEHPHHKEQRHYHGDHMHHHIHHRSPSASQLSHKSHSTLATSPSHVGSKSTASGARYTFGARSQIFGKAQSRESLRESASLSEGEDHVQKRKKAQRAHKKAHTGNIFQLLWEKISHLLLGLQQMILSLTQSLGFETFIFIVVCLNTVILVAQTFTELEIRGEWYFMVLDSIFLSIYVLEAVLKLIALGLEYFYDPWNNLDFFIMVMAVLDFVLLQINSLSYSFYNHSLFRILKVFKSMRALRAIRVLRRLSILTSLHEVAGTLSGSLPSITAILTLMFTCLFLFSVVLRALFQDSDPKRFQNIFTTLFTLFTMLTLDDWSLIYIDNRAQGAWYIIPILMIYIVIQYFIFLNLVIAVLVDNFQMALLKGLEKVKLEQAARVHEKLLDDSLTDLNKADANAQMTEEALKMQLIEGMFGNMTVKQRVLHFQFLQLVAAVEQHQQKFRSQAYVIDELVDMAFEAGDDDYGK
T1 sequence (A2ARP9 whole entry): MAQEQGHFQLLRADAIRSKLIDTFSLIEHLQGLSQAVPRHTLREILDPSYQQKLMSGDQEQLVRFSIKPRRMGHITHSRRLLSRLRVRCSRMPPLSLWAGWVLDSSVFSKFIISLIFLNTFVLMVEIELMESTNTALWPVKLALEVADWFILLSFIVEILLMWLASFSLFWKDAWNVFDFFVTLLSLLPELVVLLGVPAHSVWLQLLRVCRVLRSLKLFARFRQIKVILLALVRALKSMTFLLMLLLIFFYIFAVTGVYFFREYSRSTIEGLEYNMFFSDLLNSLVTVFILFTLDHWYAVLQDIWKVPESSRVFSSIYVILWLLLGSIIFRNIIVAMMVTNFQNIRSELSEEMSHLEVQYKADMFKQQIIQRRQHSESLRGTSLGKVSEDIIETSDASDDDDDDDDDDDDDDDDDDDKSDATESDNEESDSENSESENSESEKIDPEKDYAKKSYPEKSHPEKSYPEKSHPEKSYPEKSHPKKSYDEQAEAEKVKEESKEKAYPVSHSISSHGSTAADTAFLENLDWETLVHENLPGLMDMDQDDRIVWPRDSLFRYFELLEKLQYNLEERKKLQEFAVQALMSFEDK
T1 sequence (Q80W99 whole entry): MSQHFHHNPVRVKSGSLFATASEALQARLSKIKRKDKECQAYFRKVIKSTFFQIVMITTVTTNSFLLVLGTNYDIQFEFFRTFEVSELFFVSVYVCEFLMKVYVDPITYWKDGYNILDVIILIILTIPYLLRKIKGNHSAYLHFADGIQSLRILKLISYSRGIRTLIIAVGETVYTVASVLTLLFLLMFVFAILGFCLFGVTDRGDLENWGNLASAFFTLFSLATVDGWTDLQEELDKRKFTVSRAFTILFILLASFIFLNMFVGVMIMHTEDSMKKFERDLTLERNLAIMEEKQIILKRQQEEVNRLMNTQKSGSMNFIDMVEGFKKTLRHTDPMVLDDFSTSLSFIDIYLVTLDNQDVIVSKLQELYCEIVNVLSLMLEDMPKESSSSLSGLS
T1 sequence (Q8BVN3 whole entry): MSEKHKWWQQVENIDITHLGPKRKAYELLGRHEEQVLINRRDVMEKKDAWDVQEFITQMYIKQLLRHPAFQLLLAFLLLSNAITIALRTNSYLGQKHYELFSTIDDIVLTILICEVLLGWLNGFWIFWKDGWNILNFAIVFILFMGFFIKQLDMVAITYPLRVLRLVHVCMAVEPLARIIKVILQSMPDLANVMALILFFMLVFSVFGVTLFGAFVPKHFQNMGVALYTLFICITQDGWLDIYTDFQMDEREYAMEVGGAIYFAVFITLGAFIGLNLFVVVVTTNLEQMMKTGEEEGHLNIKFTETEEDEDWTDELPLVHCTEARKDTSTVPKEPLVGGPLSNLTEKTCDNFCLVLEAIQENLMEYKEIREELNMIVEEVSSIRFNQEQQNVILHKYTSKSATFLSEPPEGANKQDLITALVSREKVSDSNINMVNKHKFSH

`O=C(c1cccs1)c1no[n+]([O-])c1C(=O)c1cccs1` [HC-056456, 3,4-bis(2-thienylcarbonyl)-1,2,5-oxadiazole-2-ium-2-olate] gave an IC50 of roughly 15 µM.
